Results: US20220249441A1, “Homodimeric Tobramycin Adjuvant Repurposes Novobiocin as an Effective Antibacterial Agent Against Gram-Negative Bacteria” (priority 2019, published 2022)

Experiments:
[1] = test system: P. aeruginosa; assay: Checkerboard assay (antibiotic + adjuvant combination MIC); format: cell-based, Pseudomonas aeruginosa; settings: compound at 8 μM
Method: (§1) Antimicrobial Susceptibility Assay. The in vitro antimicrobial activity of all compounds/antibiotics against a panel of bacteria was evaluated by microbroth dilution method in accordance with the Clinical and Laboratory Standards Institute (CLSI) guidelines (using ATCC strains as quality control strains) (54). Overnight grown bacterial cultures were diluted in saline to achieve a 0.5 McFarland turbidity, followed by 1:50 dilution in Mueller-Hinton broth (MHB) for inoculation to a final concentration of approximately 5×10^5 CFU/mL. […] The lowest concentration that prevented the visible growth of bacteria was defined as the MIC for each antimicrobial agent. The broth with or without bacterial cells was used as positive or negative control, respectively.
Checkerboard Assay. Combination studies with different antibiotics were performed in 96-well plates as previously described (19). Briefly, the antibiotic of interest was serially diluted in MHB along the abscissa while the adjuvant (tobramycin homodimer) was serially diluted in MHB along the ordinate. This creates a 10×7 matrices wherein each well consists of a combination of different antibiotic and adjuvant concentrations. Overnight grown bacterial cultures were diluted in saline to achieve a 0.5 McFarland turbidity, followed by 1:50 dilution in Mueller-Hinton broth (MHB) for inoculation to a final concentration of approximately 5×10^5 CFU/mL. […] MIC was recorded as wells with the lowest concentration of drugs with no bacterial growth. The fractional inhibitory concentration (FIC) for each antibiotic was calculated by dividing the MIC of the antibiotic in the presence of adjuvant by the MIC of the antibiotic alone. Similarly, the FIC of adjuvant was calculated by dividing the MIC of the adjuvant in the presence of antibiotic by the MIC of the adjuvant alone. FIC index is the sum of both FICs. FIC indices of ≤0.5 were deemed synergistic; >0.5-4, no interaction; and >4, antagonistic.

[2] = test system: P. aeruginosa PAO1 and efflux deficient mutants, MDR/XDR isolates; assay: microbe, parasite or virus in culture; format: cell-based, Pseudomonas aeruginosa
Method: Antimicrobial Susceptibility Assay. The in vitro antimicrobial activity of all compounds/antibiotics against a panel of bacteria was evaluated by microbroth dilution method in accordance with the Clinical and Laboratory Standards Institute (CLSI) guidelines (using ATCC strains as quality control strains) (54). […] The broth with or without bacterial cells was used as positive or negative control, respectively.

[3] = test system: panel of Gram-positive and Gram-negative bacteria; assay: Antimicrobial susceptibility assay against a panel of bacteria; format: cell-based; settings: some isolates
Method: as §1

With Cl.Cl.Cl.Cl.Cl.Cl.NC[C@H]1O[C@H](O[C@H]2[C@H](OCCCCCCCCCCCCN3CCN(c4cc5c(cc4F)c(=O)c(C(=O)O)cn5C4CC4)CC3)[C@@H](O[C@H]3O[C@H](CO)[C@@H](O)[C@H](N)[C@H]3O)[C@H](N)C[C@@H]2N)[C@H](N)C[C@@H]1O [Compound 21, Tobramycin-ciprofloxacin] the MIC of Aztreonam + compound ([1]; P. aeruginosa PAO1) was 0.25 µg/mL, the MIC of Ceftazidime + compound ([1]; P. aeruginosa PAO1) was 0.25 µg/mL and the MIC of Imipenem + compound ([1]; P. aeruginosa PAO1) was 0.5 µg/mL. It also gave an MIC of Piperacillin + compound ([1]; P. aeruginosa PAO1) of 2 µg/mL, an MIC of ATM in the presence of compound ([1]; PA 259-96918) of 8 µg/mL and an MIC of CAZ in the presence of compound ([1]; PA 259-96918) of 64 µg/mL. The MIC of IPM in the presence of compound ([1]; PA 259-96918) was 16 µg/mL, the MIC of ATM in the presence of compound ([1]; PA 260-97103) was 4 µg/mL and the MIC of CAZ in the presence of compound ([1]; PA 260-97103) was 4 µg/mL. For the same compound, the MIC of IPM in the presence of compound ([1]; PA 260-97103) was 2 µg/mL, the MIC of ATM in the presence of compound ([1]; PA 262-101856) was 4 µg/mL and the MIC of CAZ in the presence of compound ([1]; PA 262-101856) was 4 µg/mL. For the same compound, the MIC of IPM in the presence of compound ([1]; PA 262-101856) was 4 µg/mL, the MIC of ATM in the presence of compound ([1]; PA 264-104354) was 8 µg/mL and the MIC of CAZ in the presence of compound ([1]; PA 264-104354) was 16 µg/mL. The MIC of IPM in the presence of compound ([1]; PA 264-104354) was 4 µg/mL, the MIC of ATM in the presence of compound ([1]; PA 86052) was 8 µg/mL and the MIC of CAZ in the presence of compound ([1]; PA 86052) was 32 µg/mL. The MIC of IPM in the presence of compound ([1]; PA 86052) was 8 µg/mL, the MIC of ATM in the presence of compound ([1]; PA 88949) was 8 µg/mL and the MIC of CAZ in the presence of compound ([1]; PA 88949) was 32 µg/mL. It also gave an MIC of IPM in the presence of compound ([1]; PA 88949) of 8 µg/mL, an MIC of ATM in the presence of compound ([1]; PA 91433) of 4 µg/mL and an MIC of CAZ in the presence of compound ([1]; PA 91433) of 2 µg/mL. It also gave an MIC of IPM in the presence of compound ([1]; PA 91433) of 2 µg/mL, an MIC of ATM in the presence of compound ([1]; PA 100036) of 4 µg/mL and an MIC of CAZ in the presence of compound ([1]; PA 100036) of 2 µg/mL. For the same compound, the MIC of IPM in the presence of compound ([1]; PA 100036) was 2 µg/mL, the MIC of ATM in the presence of compound ([1]; PA 101243) was 4 µg/mL and the MIC of CAZ in the presence of compound ([1]; PA 101243) was 8 µg/mL. For the same compound, the MIC of IPM in the presence of compound ([1]; PA 101243) was 2 µg/mL, the MIC of ATM in the presence of compound ([1]; PA 101885) was 1 µg/mL and the MIC of CAZ in the presence of compound ([1]; PA 101885) was 1 µg/mL. It also gave an MIC of IPM in the presence of compound ([1]; PA 101885) of 2 µg/mL, an MIC of ATM in the presence of compound ([1]; PA 107092) of 8 µg/mL and an MIC of CAZ in the presence of compound ([1]; PA 107092) of 16 µg/mL. For the same compound, the MIC of IPM in the presence of compound ([1]; PA 107092) was 8 µg/mL, the MIC of ATM in the presence of compound ([1]; PA 108590) was 0.5 µg/mL and the MIC of CAZ in the presence of compound ([1]; PA 108590) was 0.5 µg/mL. The MIC of IPM in the presence of compound ([1]; PA 108590) was 0.25 µg/mL, the MIC of ATM in the presence of compound ([1]; PA 109084) was 16 µg/mL and the MIC of CAZ in the presence of compound ([1]; PA 109084) was 16 µg/mL. The MIC of IPM in the presence of compound ([1]; PA 109084) was 8 µg/mL, the MIC of ATM in the presence of compound ([1]; PA 114228) was 2 µg/mL and the MIC of CAZ in the presence of compound ([1]; PA 114228) was 0.5 µg/mL. For the same compound, the MIC of IPM in the presence of compound ([1]; PA 114228) was 2 µg/mL, the MIC of ATM in the presence of compound ([1]; PA O200 (efflux-deficient)) was 0.03 µg/mL and the MIC of CAZ in the presence of compound ([1]; PA O200 (efflux-deficient)) was 0.06 µg/mL. The MIC of IPM in the presence of compound ([1]; PA O200 (efflux-deficient)) was 1 µg/mL, the MIC of ATM in the presence of compound ([1]; PA O750 (efflux-deficient)) was 0.06 µg/mL and the MIC of CAZ in the presence of compound ([1]; PA O750 (efflux-deficient)) was 0.03 µg/mL. For the same compound, the MIC of IPM in the presence of compound ([1]; PA O750 (efflux-deficient)) was 0.5 µg/mL, the MIC of ATM in the presence of compound ([1]; PAO1) was 0.25 µg/mL and the MIC of CAZ in the presence of compound ([1]; PAO1) was 0.25 µg/mL. For the same compound, the MIC of IPM in the presence of compound ([1]; PAO1) was 0.5 µg/mL, the “resistant isolates in which CLSI breakpoint was attained for aztreonam” value [1] was “twelve out of thirteen” and the “resistant isolates in which CLSI breakpoint was attained for ceftazidime” value [1] was “four out of eleven”. The “resistant isolates in which CLSI breakpoint was attained for imipenem” value [1] was “ten out of seventeen”, the MIC ([2]; PA0750 (efflux-deficient)) was 2 µg/mL and the MIC ([2]; PAO1 (wild-type)) was 32 µg/mL. For the same compound, the MIC ([2]; PAO200 (first column so headed)) was 4 µg/mL, the MIC ([2]; PAO200 (second column so headed)) was 2 µg/mL and the intrinsic antimicrobial activity [3] was “some modest residual activity”.
